The melting point is the temperature of the solid-liquid transition.

With `CC(C)c1nn(-c2ccc(C(F)(F)F)cn2)cc1CCCOc1c(F)cccc1CC(=O)O`, the melting point lay in the range of 140 to 141 °C.

As for `C#Cc1ccc(Nc2c(C(=O)NOCCO)ccc(F)c2F)c(Cl)c1`, the melting point lay within 155 to 157 °C.

As to `O=C(O)Cc1ccc(CN2CCN(C(c3ccccc3)c3ccccc3)CC2)cc1`, the melting point fell in the range of 183 to 185 °C.

Compound `COc1ccc2c(c1)c(Cc1nc(-c3ccc(F)cc3F)cs1)c(C)n2C(=O)c1ccc(Cl)cc1` registered a melting point of 134 to 136 °C.

Regarding `Clc1cccc(Cl)c1Cc1c[nH]cn1`, the melting point was in the range of 142 to 145 °C.

The compound `Cc1cccc2c1nc(-c1c(F)cccc1F)n2Cc1c(Cl)cccc1Cl` returned a melting point of 202 to 203 °C.

Compound `CC(C)(C)OC(=O)NCCC(=O)NCC(C(=O)OCc1ccccc1)c1ccccc1` (configuration not stated) had a melting point of 84.5 to 86 °C.

In turn, `Nc1c(Cl)cc(C(=O)O)c2c1CCO2` came in with a melting point of 258 °C.

For `O=C(O)CN1C(=O)C2(COc3cc4c(cc32)OCCO4)c2ccccc21` (configuration not stated), the melting point is 193 to 196 °C.

`CCN(CC)CCCNC(=O)N1CCCC(S(=O)(=O)c2ccccc2)C1` (configuration not stated) displayed a melting point of 56 to 58.5 °C.

`CC(CCCn1cc(CCO)c(=O)[nH]c1=O)C(=O)O` (configuration not stated): the melting point amounted to 105 °C.

As to `c1ccc(NC[C@@H]2N[C@H]2c2ccccc2)cc1` (relative stereo), the melting point is 96 to 97 °C.

With `CCOC(=O)Cn1c(=O)[nH]c(=O)c2ccccc21`, the melting point is 249 to 250 °C.

Compound `CCOC(=O)C1=C(C)NC(C)=C(C(=O)OC)C1c1cccc2c(=O)c(C)c(-c3ccccc3)oc12` (configuration not stated) came in with a melting point of 226 to 228 °C.

`Cc1nc(NCC(C)C)sc1C(=O)c1ccc(N)c([N+](=O)[O-])c1`: the melting point is 210 to 215 °C.

In the case of `CC1(C)COC(=O)C1=O`, the melting point lay within 61 to 64 °C.

The compound `CCCCCCCCNC(=O)Oc1ccc(Oc2ccccc2)cc1` displayed a melting point of 44 to 46 °C.

Consider `NCc1ccccc1C1CCN(c2nc3c(cc2F)c(=O)c(C(=O)O)cn3C2CC2)C1` (configuration not stated), for which the melting point fell in the range of 226 to 228 °C.

In turn, `COc1ccc(COc2cccc(C(C)O)c2OCc2ccc(OC)cc2)cc1` (configuration not stated) had a melting point of 88 to 89 °C.

Consider `Cc1cccc(N2CCN(CCc3ccc(-c4cccc(N)n4)cc3)CC2)c1`, for which the melting point was in the range of 158 to 160 °C.

In turn, `Clc1nc(-n2cnc(-c3ccccc3)c2-c2ccccc2)c2ccccc2c1-c1ccccc1` had a melting point of 195 to 196 °C.

In turn, `CC(=O)Nc1cc2c(c(C)c1C)OC(C)(C)C2` registered a melting point of 163 to 164 °C.

For `CC(C)(N)c1ccc(-c2nc(Nc3cccc(C(F)(F)F)c3)ncc2C#N)cc1`, the melting point is 192 °C.

`O=C1CC(C(F)(F)F)CC(=O)N1c1cc(OCC=C(Cl)Cl)c(Cl)cc1F` showed a melting point of 106 to 108 °C.

Compound `O=c1ccccn1CCCn1ccccc1=O` came in with a melting point of 132 °C.

In the case of `O=C(O)c1c2c(nc3ccccc13)-c1cc3sc4ccccc4c3cc1CC2`, the melting point lay in the range of 190 to 193 °C.

`CCCCCCCCCCCCCCCNC(=O)OCCOCCOCCOC(=O)NCc1ccccn1` gave a melting point of 58 to 62 °C.

The compound `Cc1nc2nc(S(=O)(=O)Nc3c(Cl)cccc3Cl)nn2cc1Br` gave a melting point of 215 to 216 °C.

`O=CN1CCC(c2noc3cc(Cl)ccc23)CC1` returned a melting point of 114 to 115 °C.

Compound `CCCOc1ccc(S(=O)(=O)N2CCN(C(C)=O)CC2)cc1-c1nc2cc(N)c([N+](=O)[O-])cc2c(=O)[nH]1` displayed a melting point of 249 to 251 °C.

`COC(=O)c1ccc(OC2=C3N=C4CCCCC4=C3C(Cc3cccc(F)c3)C=C2)o1` (configuration not stated) returned a melting point of 86 to 88 °C.

As to `O=c1[nH]c2cc(Cl)ccc2c(O)c1-c1ccccc1Cl`, the melting point is greater than 300 °C.

`CCn1nc(-c2ccccc2)c(C(C)=O)c(Nc2ccc(CN)cc2)c1=O` had a melting point of 139 °C.

Turning to `Cc1cc2cc(CN3CCC(CCCC(N)=O)CC3)cnc2cc1NC(=O)c1ccc(-c2ccc(F)cc2)cc1`, the melting point was found to be 228 °C.

With `CC(C)N(C(=O)C(F)(F)F)C(C#N)c1ccc(Cl)cc1` (configuration not stated), the melting point lay in the range of 78.5 to 79.5 °C.

Consider `Cc1cc(SC2=C(O)CC(CCc3cccnc3)(C(C)C)OC2=O)c(C(C)(C)C)cc1CO` (configuration not stated), for which the melting point is 122 to 125 °C.

The compound `CC(C)(C)c1ccc(NC(=O)c2ccc(C#N)cc2)cc1` registered a melting point of 210 to 211 °C.

`CCOC(=N)C1(O)CCc2ccccc21` (configuration not stated) returned a melting point of less than 20 °C.

Turning to `COc1cc(OC)c2c(=O)cc(-c3ccc(O)cc3)oc2c1`, the melting point fell in the range of 301 to 303 °C.

As for `CNS(=O)(=O)c1ccc(NN=C2C(=O)Nc3ccc4ncsc4c32)cc1`, the melting point was greater than 260 °C.

`CCS(=O)(=O)N(Cc1ccccc1)Cc1ccc2[nH]cc(CCCN3CCN(c4ncncc4OC)CC3)c2c1`: the melting point lay within 73 to 75 °C.

Compound `COCCOc1cc(/C=C/C(=O)NS(=O)(=O)CCC(C)C)n(Cc2ccc(C(F)(F)F)cc2Cl)n1` showed a melting point of 114 to 116 °C.

The compound `Cc1cc(=S)c2c(O)cc(OC(C)C)cc2o1` had a melting point of 119 to 120 °C.

With `COc1ccc2sc3c(c2c1)OCCNC3=O`, the melting point was 264 to 265 °C.

`CC(C)c1c(CC[C@@H]2C[C@@H](O)CC(=O)O2)n(-c2ccc(F)cc2)c(=O)c2ccccc12` displayed a melting point of 192 to 193 °C.

`CC1=C(S(=O)(=O)c2ccc(C)cc2)C(c2ccc(C)cc2)C(C#N)=C(CC(C)C)N1` (configuration not stated) showed a melting point of 135 to 137 °C.

`CCOC(=O)C1=C(COCCN(C)S(C)(=O)=O)NC(C)=C(C(=O)OC)C1c1ccccc1Cl` (configuration not stated): the melting point was 93 to 95 °C.

In the case of `COc1cc(-c2cn(C3CCCC3)c3ncnc(N)c23)ccc1NS(=O)(=O)c1ccccc1`, the melting point is 113 to 115 °C.

In turn, `Cc1c(-c2ccccc2)sc2nc(NCCO)[nH]c(=O)c12` gave a melting point of 227 to 229 °C.

As for `c1cc(Nc2csc3cnccc23)ccn1`, the melting point was in the range of 236 to 238 °C.

`CC(Cc1ccccc1)(NC=O)c1ccccc1` (configuration not stated) yielded a melting point of 97 to 99 °C.

`CS(=O)(=O)c1ccc(C(=O)N[C@H]2CC[C@H](CCN3CCC(c4cccc5c4CCO5)CC3)CC2)cc1`: the melting point is 236 °C.

`CCCCCCCCCCCCCCC(O)=S` displayed a melting point of 60 to 62 °C.

`CC12CCC(C(=O)O)=CC1=CCC1C2CCC2(C)C(C(=O)CCc3ccc(F)cc3)CCC12` (configuration not stated) returned a melting point of 220 °C.

`CCN(CC)C(=O)C(C)Cc1cc(-c2ccccc2)cc2ccccc12` (configuration not stated): the melting point worked out at 70 °C.

In turn, `CCCCC1=C([N+](=O)[O-])C(c2cccc(Cl)c2Cl)c2c[nH]nc2N1` (configuration not stated) came in with a melting point of 220 °C.

The compound `CCCS(=O)(=O)Oc1ccc(-c2nc3cc4c(cc3[nH]2)C(C)(C)CC(=O)N4)cc1` had a melting point of 148 to 156 °C.

Compound `COC(=O)c1ccc(OC)c(NC(=NCl)c2ccccc2)c1` displayed a melting point of 120 °C.

Take `CN[C@H]1CCN(c2c(-c3ccccc3)c(C)c(C#N)c3nc(C(=O)N(C)C)oc23)C1`: the melting point is 148 to 151 °C.

The compound `COC(=O)c1ccc(C(=O)NS(=O)(=O)c2ccc(CCNC(=O)c3cc(Cl)ccc3OC)cc2)cn1` returned a melting point of 233 °C.

The compound `COc1cccc2c1nc(C(F)F)n2-c1nc(N2CCOCC2)nc(N(C)c2cncnc2)n1` displayed a melting point of 214 to 217 °C.

On to `CCOC(=O)[C@@]1(C)CSC(c2ccc(OCCOCCOC)cc2O)=N1`, for which the melting point was in the range of 68 to 70 °C.

`Cc1onc(-c2ccccc2)c1-c1csc(N)n1` registered a melting point of 223 to 224 °C.

Take `Cc1c(F)cccc1Cc1c(-c2ccccc2)c2ccccn2c1C(=O)N1CCN(C(=O)OC(C)(C)C)[C@@H](CCO)C1`: the melting point was 85 °C.

On to `O=[N+]([O-])c1cc(CS(=O)(=O)Cc2ccc(O)c([N+](=O)[O-])c2)ccc1O`, for which the melting point lay in the range of 166 to 168 °C.

In turn, `CC(C)c1cc(O)cc(C(C)C)c1` displayed a melting point of 51 to 52 °C.

The compound `CN(C)S(=O)(=O)N(C)c1ccc(C(O)(C(F)(F)F)C(F)(F)F)cc1` showed a melting point of 63 to 65 °C.

The compound `Cc1nc(Nc2ccc(F)cc2)nc(Br)c1C` came in with a melting point of 123 °C.

`CC(=O)SC[C@H](NC(=O)C(C)C)C(=O)NCCSC(=O)C(C)(C)C` came in with a melting point of 112 to 114 °C.

Turning to `NC(=O)c1c(Cl)c(-c2ccccc2)n2c1CN(S(=O)(=O)c1cccc(C(F)(F)F)c1)CC2`, the melting point lay within 158 to 159 °C.

The compound `c1cc(-n2cccc2)cc(-n2cnc3cc(-c4ccco4)ccc32)c1` returned a melting point of 137 to 139 °C.

In turn, `COc1ccccc1N1CCN(CCNc2ccccc2[N+](=O)[O-])CC1` gave a melting point of 117 to 118 °C.

In turn, `CC(C)(C)OC(=O)C1(O/N=C(\C(=O)O)c2csc(NC(c3ccccc3)(c3ccccc3)c3ccccc3)n2)CC1` came in with a melting point of 157 °C.

As to `COc1cc(-n2c(=O)cc(C(F)(F)F)n(N)c2=O)ccc1C#N`, the melting point is greater than 230 °C.

In turn, `CCCN(CCC)C(=O)Cc1c(-c2ccc(Cl)cc2)nn2cccnc12` returned a melting point of 104 to 106 °C.

In turn, `O=C1NC(=O)C(Cc2ccc(N3CCC(NC[C@H](O)c4csc(C(F)(F)F)n4)CC3)cc2)S1` (some centres not stated) registered a melting point of 108 to 113 °C.

For the compound `N#CCC(O)(c1ccc(Br)cc1)c1ccc(-c2ccc(Br)cc2)cc1` (configuration not stated), the melting point came out at 154 °C.

Consider `CCCC(=O)c1cnc2c(O)cccc2c1Nc1ccc(F)cc1C`, for which the melting point was in the range of 121 to 122 °C.

`CCOC(=O)N1C(=O)C2(COc3cc4c(cc32)OCCO4)c2ccccc21` (configuration not stated) yielded a melting point of 198 to 200 °C.

Consider `CNCC(O)c1cccc(F)c1` (configuration not stated), for which the melting point was in the range of 63 to 65 °C.

In turn, `COc1cccc(-n2c(N3CCNCC3)c(C(=O)N3CCN(C)CC3)c3ccccc32)c1` displayed a melting point of 228 to 230 °C.

In turn, `C[C@@H](NS(=O)(=O)c1cccs1)c1cccc(C(=O)c2ccco2)c1` showed a melting point of 105 to 106 °C.

Compound `CC(C)Oc1c(C(=O)Nc2nnn[nH]2)[nH]c(Br)c1Br` returned a melting point of 194 to 196 °C.

`C=C(C)COc1ccc(C(=O)C=Cc2cccc(OC)c2)c(O)c1` came in with a melting point of 97 to 100 °C.

The compound `O=C(O)c1c[nH]c(Cl)c1` yielded a melting point of 175 to 178 °C.

The compound `COc1cn(-c2ccc(C(F)(F)F)cc2F)nc(-c2ccnn2-c2ccccc2)c1=O` yielded a melting point of 169 to 171 °C.

Regarding `CS(=O)(=O)N(CCCl)N(C(=O)NCCCl)S(C)(=O)=O`, the melting point is 96 to 97.5 °C.

For the origin of these results see a melting point compilation (Tetko et al.; mined from patent text by program, amines drawn as free bases though some values may be those of a salt).
